Results on ten molecules are retold here after patent US7541375B2, “Azole derivatives and pharmaceutical compositions containing them” (Laboratoires Serono SA, priority 2001, dated 2009).

Values joined by “and” are separate entries in the source; they are usually repeats but may differ in a detail not shown here. Equal values may be shown once.

One test concerns Colon C26 cell. Nature of the test: Colon C26 cell anti-proliferation assay. The class given is cell-based, murine. The following applies: Mus musculus; Colon C26 cells, 2×10^3 cells/well. The protocol:
(§1) Compounds of the invention were tested for anti-proliferation activity against colon tumors (Colo205, HT-29, C26 and SW660 cell lines) by procedures described in Example 40 above. 2×10^3 cells/well used.

Test [1] deals with murine colon carcinoma C26 cells. Description: Growth of tumors induced in CDF1 mice with murine colon carcinoma C26 cells. The format is in vivo. Here is the method:
The aim of this study was to evaluate the effects of Example No. 30 in FIG. 1: […] Control group (empty circles) was treated with NP3S (5% N-methylpyrrolidone/30% PEG400/25% PEG200/20% Propylene Glycol in Saline) per os bid. […] Drugs treatment started 8 days following C26 cell injection and then continued for 13 days. […] Tumor volume and body weight were monitored every three days from day 8 until day 20.

Another test relates to TNF release (TNF-α). Nature of the test: Inhibition of TNF-alpha production in LPS-stimulated mice. The class given is in vivo. The following applies: −15 mn before LPS. Here is the method:
Injection of lipopolysaccharide (LPS) induces a rapid release of soluble tumor necrosis factor (TNF-α) into the periphery. This model is used to identify potential blockers of TNF release in vivo
The potency of compounds of the invention as inhibitors of serum TNFα elevation in mice treated with LPS is determined as follows:
• For per oral (p.o.) administration, compounds of the invention are formulated in 0.5% carboxymethyl cellulose/0.25% Tween 80 in saline and given orally via gavage […] to LPS administration. Dexamethasone is used as the reference compound and given at 0.1 mg/kg per orally. • C3/hen female mice (Iffa-Credo, France) are injected intraperitoneally with 0.3 mg/kg LPS (Escherichia coli, Serotype 0111:B4, Sigma Chemical Co., St. Louis, Mo.) and sacrificed 90 min later by CO2 asphyxiation. Blood is immediately taken from caudal vena cava and plasma prepared and frozen at −80° C. Each group of treatment contained 6 animals.

In test [2] the target is MEK-1 (constitutively active MEK1EE) (Homo sapiens, UniProt Q02750, S218E/S222E). Description: MEK-1 enzyme assay (HTRF, phosphorylation of ERK2K52A). The following applies: 3 μM ATP, 2 hours room temperature. The format is biochemical. Here is the method: A 50 μl mixture containing 15 nM constitutively active MEK1EE and 300 nM of ERK2K52A were incubated either in the presence or absence of the compounds of the invention in 1% DMSO and 1× kinase buffer containing 3 μM ATP, […], […], 1 mM DTT and 100 μM Na3VO4 in Wallac 96 well black plates for 2 hours at room temperature. At the end of the incubation the enzyme reaction was quenched by adding 50 μl of assay buffer containing […] Tris-HCl, 50 mM EDTA, 0.1% BSA and a mixture of 1.25 μg/ml europium labeled anti-phosphotyrosine mAb and 5 μg/ml allophycocyanin labeled (APC) anti-GST antibody. Plates were agitated on a plate shaker for 30 minutes and phosphorylation of the ERK2K52A substrate was measured by homogenous time resolved fluorescence (HTRF) at 340 nm excitation and […] emission filters on the VICTOR V fluorescence plate reader. The results are of phosphorylation of ERK-2, with inhibition occurring at the MEK-1 level. Results were as follows for the specified compounds: […]
Sequence of MEK-1 (constitutively active MEK1EE) (Q02750 whole entry S218E/S222E, species assumed): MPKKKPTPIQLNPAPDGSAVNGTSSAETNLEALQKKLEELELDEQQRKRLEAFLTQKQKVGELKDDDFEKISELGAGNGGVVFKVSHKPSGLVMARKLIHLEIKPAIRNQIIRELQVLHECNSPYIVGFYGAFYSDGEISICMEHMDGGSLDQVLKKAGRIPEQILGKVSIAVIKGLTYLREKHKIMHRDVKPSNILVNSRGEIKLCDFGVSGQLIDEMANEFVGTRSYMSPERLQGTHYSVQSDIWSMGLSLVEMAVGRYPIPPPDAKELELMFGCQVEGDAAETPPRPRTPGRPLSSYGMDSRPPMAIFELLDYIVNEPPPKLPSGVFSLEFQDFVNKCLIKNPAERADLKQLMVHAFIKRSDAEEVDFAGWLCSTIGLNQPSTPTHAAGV
(In general: In TR-FRET formats the signal depends on donor and acceptor labels being close together.)

The next test addresses MEK-1/ERK-2 (Homo sapiens, UniProt Q02750, S218E/S222E). Description: MEK-1/ERK-2 enzyme cascade assay (33P incorporation into MBP biotin). The following applies: 3 μM ATP, phosphorylation of myelin basic protein. The format is biochemical. The protocol:
MEK-1/ERK-2 Enzyme Cascade Assay
A 50 μl mixture containing 40 nM of constitutively active MEK1EE, 160 nM of ERK2 and 10 μM MBP biotin were incubated in the presence or absence of the below compound of the invention in 1% DMSO and 1× kinase buffer containing 3 μM ATP, 50 mM Tris-HCl pH 8.0, 10 mM MgCl2, 1 mM DTT, 100 μM Na3VO4 and […] ^33P-γATP in Wallac 96 well white plates for 2 hours at room temperature. At the end of the incubation the enzyme reaction was quenched by adding 200 μl Phosphate buffered saline (PBS) solution containing 1.25 mg/ml Streptavidin SPA beads, 50 mM EDTA and 0.1% Triton 100 and incubated further for 12-14 hours at room temperature. ^33P-γATP incorporation into MBP biotin was measured using the top counts. The assay read-out is phosphorylation of myelin basic protein, which is a representative substrate of ERK-2-phos. This assay is a further confirmatory screen of the assay of Example 38 above.

For test [3], the system named is SW 660 cell (ATCC CCL-227). Nature of the test: SW 660 cell anti-proliferation assay. The following applies: SW 660 cells, 2×10^3 cells/well. The format is cell-based. Here is the method: as §1
The subject of test [4] is ovarian cancer OVCAR-3 cells. Description: OVCAR-3 tumor cell proliferation assay. The format is cell-based. Conditions: Homo sapiens; OVCAR-3, ATP lite cell proliferation kit.
Protocol: (§2) Breast cancer MCF-7 cells or ovarian cancer OVCAR-3 cells were plated in 96 well Packard white plates at 4×10^3 cells/well and cultured overnight at 37° C. in 5% CO2. The below specified test compounds were serially diluted in 100% DMSO and subsequently added to cells to reach a final concentration of 0.5% DMSO. MCF-7 and OVCAR-3 (ATCC HTB-161) plates were incubated for an additional 4 to 5 days respectively at 37° C. and 5% CO2 and cell proliferation was quantitated using the ATP lite cell proliferation kit (Packard).
A further test has as its system HT-29 cell (ATCC HTB-38). Description: HT-29 cell anti-proliferation assay. The class given is cell-based. The following applies: Homo sapiens; HT-29 cells, 2×10^3 cells/well. The protocol: as §1
Test [5] deals with Colon 205 cell (ATCC CCL-222). Description: Colon 205 cell anti-proliferation assay. The format is cell-based. Conditions: Colon 205 cells, 2×10^3 cells/well. Here is the method: as §1
Test [6] deals with Breast cancer MCF-7 cells. Nature of the test: MCF-7 tumor cell proliferation assay. The following applies: Homo sapiens, MCF7; MCF-7, ATP lite cell proliferation kit. The class given is cell-based.
Protocol: as §2

Sequence of MEK-1/ERK-2 (Q02750 whole entry S218E/S222E): as the sequence (Q02750 whole entry S218E/S222E, species assumed) above

A word on the IC50: it is the concentration needed to halve the response being measured. Read a low IC50 as inhibition by little substance. The molecule `N#Cc1ccc(OCC(Cn2ccnc2Cl)NC(=O)c2ccc(I)cc2)cc1` (stereo not shown) [Example 35, N-[1-(2-Chloro-imidazol-1-ylmethyl)-2-(4-cyano-phenoxy)-ethyl]-4-iodo-benzamide] gave a concentration for half-maximal inhibition (IC50) in the test with Colon C26 cell of 300 nM.

In the case of `O=C(NC(COc1ccc(F)cc1)Cn1ccnc1)c1ccc(I)cc1` (stereo not shown) [Example 30, N-[2-(4-Fluoro-phenoxy)-1-imidazol-1-ylmethyl-ethyl]-4-iodo-benzamide], the “tumor-induced body weight loss” value in [1] (50 mg/kg p.o. bid) and in [1] (100 mg/kg p.o. bid) was “significant prevention of tumor-induced body weight loss” in each case. Further, the “inhibition of tumor growth rate evaluated at day 20” value in test [1] (100 mg/kg p.o. bid, day 20, vs NP3S control) is 37%. Further, in [1] (100 mg/kg p.o. bid, significant from day 11 to day 20), the “tumor growth vs NP3S control group” value is given as “reduced tumor growth”. The “TNF Release vs LPS inj. % of inhibition Mean ± SEM” value was found to be 77 ± 2% in the test on TNF release (TNF-α) (12.5 mg/kg p.o.) and 85 ± 3% in the test on TNF release (TNF-α) (50 mg/kg p.o.). The IC50 in test [2] turned out to be 21 nM.

In the case of `O=P1(N(CCCl)CCCl)NCCCO1` (stereo not shown) [Cyclophosphamide, reference compound], in [1] (50 mg/kg s.c. every third day, 5 treatments, day 20), the “inhibition of tumor growth at day 20” value amounted to 73%. In [1] (50 mg/kg s.c. every third day, day 11 until day 20 (p<0.001)), the “tumor growth (tumor volume)” value is given as “significantly slowed down tumor growth”. Moreover, the “tumor-associated loss in body weight” value in test [1] (50 mg/kg s.c. every third day, from day 11) is reported as “markedly prevented”.

`O=C(NC(COc1ccc(F)cc1)Cn1ccnc1Cl)c1ccc(I)cc1` (stereo not shown) [Example 34, N-[1-(2-Chloro-imidazol-1-ylmethyl)-2-(4-fluoro-phenoxy)-ethyl]-4-iodo-benzamide] had an IC50 with Colon C26 cell of 1250 nM. In other words, the single-digit micromolar range.

As for `COc1ccc(C(=O)OC(COc2ccccc2)Cn2ccnc2)cc1` (racemic) [4-methoxy-benzoic acid 1-imidazol-1-yl methyl-2-phenoxy-ethyl ester (racemic), 4-methoxy-benzoic acid 1-imidazol-1-yl methyl-2-phenoxy-ethyl ester], the IC50 against MEK-1/ERK-2 was found to be 1780 ± 254 nM; in [2], 1630 ± 241 nM.

On to `C[C@@H]1C[C@H]2[C@@H]3CCC4=CC(=O)C=C[C@]4(C)[C@@]3(F)[C@@H](O)C[C@]2(C)[C@@]1(O)C(=O)CO` [Dexamethasone, reference compound], for which the “TNF Release vs LPS inj. % of inhibition Mean ± SEM” value with TNF release (TNF-α) (0.1 mg/kg p.o.) is 86 ± 6% and 88 ± 1%.

With `O=C(N[C@@H](COc1ccccc1)Cn1ccnc1)c1ccc(I)cc1` [Example 27, N-(1-imidazol-1-ylmethyl-2-phenoxy-ethyl)-4-iodo-benzamide], the “TNF Release vs LPS inj. % of inhibition Mean ± SEM” value in the test on TNF release (TNF-α) (12.5 mg/kg p.o.) was 32 ± 5%; with TNF release (TNF-α) (50 mg/kg p.o.), 39 ± 3%. Besides, the IC50 was found to be 2200 nM in test [3]; 50000 nM in test [4]; 2800 nM in the test on HT-29 cell (ATCC HTB-38); 2100 nM in test [5]; 85 nM against MEK-1/ERK-2; 92 nM in test [2].

For `COc1ccc(C(=O)O[C@@H](COc2ccccc2)Cn2ccnc2)cc1` [Example 6, (R)-4-Methoxy-benzoic acid 1-imidazol-1-yl methyl-2-phenoxy-ethyl ester], the IC50 amounted to 20000 nM in test [3]; 32500 ± 3500 nM in test [6]; 40000 nM in [4]; 27500 nM with HT-29 cell (ATCC HTB-38); 22500 nM in [5]; 920 ± 174 nM against MEK-1/ERK-2. This molecule yielded an IC50 in [2] of 860 ± 93 nM.

As to `O=C(O[C@@H](COc1cccnc1)Cn1ccnc1)c1ccc(I)cc1` [Example 22, 4-Iodo-benzoic acid 1-imidazol-3-yl methyl-2-(pyridin-3-yloxy)-ethyl ester], the IC50 with Colon C26 cell was determined as 1080 nM; in test [2], 11 nM.

Take `O=C(OC(COc1ccc([N+](=O)[O-])cc1)Cn1ccnc1)c1ccc(I)cc1` (stereo not shown) [Example 18, 4-Iodo-benzoic acid 2-imidazol-1-yl-1-(4-nitro-phenoxymethyl)-ethyl ester]: the IC50 came out at 570 nM in the test with Colon C26 cell and 15 nM in [2].
